{"source": "the supplement of paper PMC10307832", "assay_in_all_cases": "relative viability (nuclei count vs DMSO), 5 days (fraction); higher = more cells survive", "key": {"EMC-BAC-2": {"tested_on": "EMC-BAC-2", "in_short": "(§1)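 Lung cancer cell lines, seeded in 1536-well plates, were treated the following day by pin tool with a single drug or with five library-drug doses (not always all listed) in √10 steps on top of a fixed anchor-drug dose. Cells were fixed and nuclei stained in one step after 5 days, and nuclei were counted. Relative viability is the nuclei count for treated wells divided by that for vehicle wells, reported as medians of duplicate plates.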"}, "COR-L23": {"tested_on": "COR-L23", "in_short": "as §1"}, "NCI-H1792": {"tested_on": "NCI-H1792", "in_short": "as §1"}, "A-427": {"tested_on": "A-427", "in_short": "as §1"}, "NCI-H1993": {"tested_on": "NCI-H1993", "in_short": "as §1"}, "SK-LU-1": {"tested_on": "SK-LU-1", "in_short": "as §1"}, "NCI-H2228": {"tested_on": "NCI-H2228", "in_short": "as §1"}, "LXF-289": {"tested_on": "LXF-289", "in_short": "as §1"}, "NCI-H1944": {"tested_on": "NCI-H1944", "in_short": "as §1"}, "ABC-1": {"tested_on": "ABC-1", "in_short": "as §1"}, "LK-2": {"tested_on": "LK-2", "in_short": "as §1"}, "NCI-H2009": {"tested_on": "NCI-H2009", "in_short": "as §1"}, "SK-MES-1": {"tested_on": "SK-MES-1", "in_short": "as §1"}, "NCI-H1793": {"tested_on": "NCI-H1793", "in_short": "as §1"}, "HARA": {"tested_on": "HARA", "in_short": "as §1"}, "NCI-H596": {"tested_on": "NCI-H596", "in_short": "as §1"}, "PC-3 [JPC-3]": {"tested_on": "PC-3 [JPC-3]", "in_short": "as §1"}, "SW 1573": {"tested_on": "SW 1573", "in_short": "as §1"}, "NCI-H727": {"tested_on": "NCI-H727", "in_short": "as §1"}, "LU99A": {"tested_on": "LU99A", "in_short": "as §1"}, "HOP-62": {"tested_on": "HOP-62", "in_short": "as §1"}, "NCI-H3122": {"tested_on": "NCI-H3122", "in_short": "as §1"}, "NCI-H2170": {"tested_on": "NCI-H2170", "in_short": "as §1"}}}
{"compound": "C[C@@H]1CN(CC(=O)Nc2ccc3c(c2)Cc2cccc(-c4cc(=O)cc(N5CCOCC5)o4)c2S3)C[C@H](C)O1", "note": "+ Cc1nc(NC(=O)N2CCC[C@H]2C(N)=O)sc1-c1ccnc(C(C)(C)C(F)(F)F)c1 [Alpelisib] (partner 2 µM)", "values": [{"measurement": "relative viability", "setting": "EMC-BAC-2; first compound 0.04 µM", "result": 0.748}, {"measurement": "relative viability", "setting": "EMC-BAC-2; first compound 0.1265 µM", "result": 0.771}, {"measurement": "relative viability", "setting": "EMC-BAC-2; first compound 0.4 µM", "result": 0.726}, {"measurement": "relative viability", "setting": "EMC-BAC-2; first compound 4 µM", "result": 0.73}, {"measurement": "relative viability", "setting": "COR-L23; first compound 0.04 µM", "result": 1.02}, {"measurement": "relative viability", "setting": "COR-L23; first compound 0.1265 µM", "result": 0.802}, {"measurement": "relative viability", "setting": "COR-L23; first compound 0.4 µM", "result": 0.798}, {"measurement": "relative viability", "setting": "COR-L23; first compound 4 µM", "result": 0.727}, {"measurement": "relative viability", "setting": "NCI-H1792; first compound 0.04 µM", "result": 0.685}, {"measurement": "relative viability", "setting": "NCI-H1792; first compound 0.1265 µM", "result": 0.677}, {"measurement": "relative viability", "setting": "NCI-H1792; first compound 0.4 µM", "result": 0.707}, {"measurement": "relative viability", "setting": "NCI-H1792; first compound 4 µM", "result": 0.665}, {"measurement": "relative viability", "setting": "A-427; first compound 0.04 µM", "result": 1.12}, {"measurement": "relative viability", "setting": "A-427; first compound 0.1265 µM", "result": 1.08}, {"measurement": "relative viability", "setting": "A-427; first compound 0.4 µM", "result": 1.07}, {"measurement": "relative viability", "setting": "A-427; first compound 4 µM", "result": 1.07}, {"measurement": "relative viability", "setting": "NCI-H1993; first compound 0.04 µM", "result": 0.641}, {"measurement": "relative viability", "setting": "NCI-H1993; first compound 0.1265 µM", "result": 0.685}, {"measurement": "relative viability", "setting": "NCI-H1993; first compound 0.4 µM", "result": 0.592}, {"measurement": "relative viability", "setting": "NCI-H1993; first compound 4 µM", "result": 0.62}, {"measurement": "relative viability", "setting": "SK-LU-1; first compound 0.04 µM", "result": 1.21}, {"measurement": "relative viability", "setting": "SK-LU-1; first compound 0.1265 µM", "result": 1.05}, {"measurement": "relative viability", "setting": "SK-LU-1; first compound 0.4 µM", "result": 0.936}, {"measurement": "relative viability", "setting": "SK-LU-1; first compound 4 µM", "result": 0.645}, {"measurement": "relative viability", "setting": "NCI-H2228; first compound 0.04 µM", "result": 0.708}, {"measurement": "relative viability", "setting": "NCI-H2228; first compound 0.1265 µM", "result": 0.707}, {"measurement": "relative viability", "setting": "NCI-H2228; first compound 0.4 µM", "result": 0.754}, {"measurement": "relative viability", "setting": "NCI-H2228; first compound 4 µM", "result": 0.485}, {"measurement": "relative viability", "setting": "LXF-289; first compound 0.04 µM", "result": 1.04}, {"measurement": "relative viability", "setting": "LXF-289; first compound 0.1265 µM", "result": 1}, {"measurement": "relative viability", "setting": "LXF-289; first compound 0.4 µM", "result": 0.996}, {"measurement": "relative viability", "setting": "LXF-289; first compound 4 µM", "result": 1.02}, {"measurement": "relative viability", "setting": "NCI-H1944; first compound 0.1265 µM", "result": 0.826}, {"measurement": "relative viability", "setting": "NCI-H1944; first compound 0.4 µM", "result": 0.86}, {"measurement": "relative viability", "setting": "NCI-H1944; first compound 4 µM", "result": 0.814}, {"measurement": "relative viability", "setting": "ABC-1; first compound 0.1265 µM", "result": 1.05}, {"measurement": "relative viability", "setting": "ABC-1; first compound 0.4 µM", "result": 0.872}, {"measurement": "relative viability", "setting": "ABC-1; first compound 4 µM", "result": 0.466}, {"measurement": "relative viability", "setting": "LK-2; first compound 0.1265 µM", "result": 1.11}, {"measurement": "relative viability", "setting": "LK-2; first compound 0.4 µM", "result": 1.18}, {"measurement": "relative viability", "setting": "LK-2; first compound 4 µM", "result": 1.28}, {"measurement": "relative viability", "setting": "NCI-H2009; first compound 0.04 µM", "result": 1.23}, {"measurement": "relative viability", "setting": "NCI-H2009; first compound 0.1265 µM", "result": 1.09}, {"measurement": "relative viability", "setting": "NCI-H2009; first compound 0.4 µM", "result": 1.09}, {"measurement": "relative viability", "setting": "NCI-H2009; first compound 4 µM", "result": 0.974}, {"measurement": "relative viability", "setting": "SK-MES-1; first compound 0.04 µM", "result": 0.927}, {"measurement": "relative viability", "setting": "SK-MES-1; first compound 0.1265 µM", "result": 0.826}, {"measurement": "relative viability", "setting": "SK-MES-1; first compound 0.4 µM", "result": 1.02}, {"measurement": "relative viability", "setting": "SK-MES-1; first compound 4 µM", "result": 0.813}, {"measurement": "relative viability", "setting": "NCI-H1793; first compound 0.04 µM", "result": 0.717}, {"measurement": "relative viability", "setting": "NCI-H1793; first compound 0.1265 µM", "result": 0.614}, {"measurement": "relative viability", "setting": "NCI-H1793; first compound 0.4 µM", "result": 0.514}, {"measurement": "relative viability", "setting": "NCI-H1793; first compound 4 µM", "result": 0.585}, {"measurement": "relative viability", "setting": "HARA; first compound 0.04 µM", "result": 0.81}, {"measurement": "relative viability", "setting": "HARA; first compound 0.1265 µM", "result": 0.637}, {"measurement": "relative viability", "setting": "HARA; first compound 0.4 µM", "result": 0.711}, {"measurement": "relative viability", "setting": "HARA; first compound 4 µM", "result": 0.78}, {"measurement": "relative viability", "setting": "NCI-H596; first compound 0.04 µM", "result": 0.513}, {"measurement": "relative viability", "setting": "NCI-H596; first compound 0.1265 µM", "result": 0.451}, {"measurement": "relative viability", "setting": "NCI-H596; first compound 0.4 µM", "result": 0.384}, {"measurement": "relative viability", "setting": "NCI-H596; first compound 4 µM", "result": 0.428}, {"measurement": "relative viability", "setting": "PC-3 [JPC-3]; first compound 0.04 µM", "result": 1.02}, {"measurement": "relative viability", "setting": "PC-3 [JPC-3]; first compound 0.1265 µM", "result": 1}, {"measurement": "relative viability", "setting": "PC-3 [JPC-3]; first compound 0.4 µM", "result": 1}, {"measurement": "relative viability", "setting": "PC-3 [JPC-3]; first compound 4 µM", "result": 0.952}, {"measurement": "relative viability", "setting": "SW 1573; first compound 0.04 µM", "result": 0.867}, {"measurement": "relative viability", "setting": "SW 1573; first compound 0.1265 µM", "result": 0.852}, {"measurement": "relative viability", "setting": "SW 1573; first compound 0.4 µM", "result": 0.771}, {"measurement": "relative viability", "setting": "SW 1573; first compound 4 µM", "result": 0.753}, {"measurement": "relative viability", "setting": "NCI-H727; first compound 0.04 µM", "result": 0.685}, {"measurement": "relative viability", "setting": "NCI-H727; first compound 0.1265 µM", "result": 0.612}, {"measurement": "relative viability", "setting": "NCI-H727; first compound 0.4 µM", "result": 0.502}, {"measurement": "relative viability", "setting": "NCI-H727; first compound 4 µM", "result": 0.479}, {"measurement": "relative viability", "setting": "LU99A; first compound 0.04 µM", "result": 0.475}, {"measurement": "relative viability", "setting": "LU99A; first compound 0.1265 µM", "result": 0.532}, {"measurement": "relative viability", "setting": "LU99A; first compound 0.4 µM", "result": 0.567}, {"measurement": "relative viability", "setting": "LU99A; first compound 4 µM", "result": 0.566}, {"measurement": "relative viability", "setting": "HOP-62; first compound 0.04 µM", "result": 1.08}, {"measurement": "relative viability", "setting": "HOP-62; first compound 0.1265 µM", "result": 1.05}, {"measurement": "relative viability", "setting": "HOP-62; first compound 0.4 µM", "result": 0.939}, {"measurement": "relative viability", "setting": "HOP-62; first compound 4 µM", "result": 1.07}, {"measurement": "relative viability", "setting": "NCI-H3122; first compound 0.04 µM", "result": 0.861}, {"measurement": "relative viability", "setting": "NCI-H3122; first compound 0.1265 µM", "result": 0.682}, {"measurement": "relative viability", "setting": "NCI-H3122; first compound 0.4 µM", "result": 0.629}, {"measurement": "relative viability", "setting": "NCI-H3122; first compound 4 µM", "result": 0.699}, {"measurement": "relative viability", "setting": "NCI-H2170; first compound 0.1265 µM", "result": 0.761}, {"measurement": "relative viability", "setting": "NCI-H2170; first compound 0.4 µM", "result": 0.727}, {"measurement": "relative viability", "setting": "NCI-H2170; first compound 4 µM", "result": 0.751}]}
